Test results as given in PubChem BioAssay AID328 (DTP/NCI, 2004).
Toxic doses and inconclusive results are not listed. Rule for the calls: active = survival T/C of 150% or more; inactive = T/C below 125% in these data.

Test system: BDF1 mice, P388 leukemia ip, median survival T/C
Assay: NCI In Vivo Anticancer Drug Screen. Data for tumor model P388 Leukemia (intraperitoneal) in B6D2F1 (BDF1) mice
Settings: endpoint: median survival time, higher = longer survival
Method in brief: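 Vehicle-dosed animals serve as the reference; survival of compound-dosed, tumour-implanted mice is divided by it.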

[1] = dose: 25.0 mg/kg/injection, schedule: Q01DX009 (ip), vehicle: saline with Tween-80
[2] = dose: 50.0 mg/kg/injection, schedule: Q01DX009 (ip), vehicle: saline with Tween-80
[3] = dose: 100.0 mg/kg/injection, schedule: Q01DX009 (ip), vehicle: saline with Tween-80

Measured: T/C

Cc1cc2c(c3oc(C4(C)OC4C4OC4C)cc(=O)c13)C(=O)c1c(O)c(C3CC(C)(N(C)C)C(O)C(C)O3)cc(C3CC(N(C)C)C(O)C(C)O3)c1C2=O (centres undefined)
active: dose: 0.12 mg/kg/injection, schedule: Q01DX001 (ip), vehicle: saline 155 % of control | dose: 0.24 mg/kg/injection, schedule: Q01DX001 (ip), vehicle: saline 190 % of control | dose: 0.48 mg/kg/injection, schedule: Q01DX001 (ip), vehicle: saline 200 % of control | dose: 4.0 micrograms/kg/injection, schedule: Q01DX010 (ip), vehicle: saline 159 % of control | dose: 5.0 micrograms/kg/injection, schedule: Q01DX010 (ip), vehicle: carboxymethylcellulose (CMC) 175 % of control | dose: 5.0 micrograms/kg/injection, schedule: Q01DX010 (ip), vehicle: steriod suspending solution 150 % of control | dose: 6.0 micrograms/kg/injection, schedule: Q01DX009 (ip), vehicle: saline 155 % of control | dose: 8.0 micrograms/kg/injection, schedule: Q01DX010 (ip), vehicle: saline 163 % of control | dose: 10.0 micrograms/kg/injection, schedule: Q01DX010 (ip), vehicle: carboxymethylcellulose (CMC) 190 % of control | dose: 10.0 micrograms/kg/injection, schedule: Q01DX010 (ip), vehicle: steriod suspending solution 160 % of control | dose: 12.0 micrograms/kg/injection, schedule: Q01DX009 (ip), vehicle: saline 170 % of control | dose: 20.0 micrograms/kg/injection, schedule: Q01DX010 (ip), vehicle: saline 154 % of control | dose: 20.0 micrograms/kg/injection, schedule: Q01DX010 (ip), vehicle: steriod suspending solution 180 % of control | dose: 32.0 micrograms/kg/injection, schedule: Q01DX010 (ip), vehicle: other 177 % of control
inactive: dose: 0.01 mg/kg/injection, schedule: Q01DX009 (oral), vehicle: saline 105 % of control | dose: 0.03 mg/kg/injection, schedule: Q01DX009 (oral), vehicle: saline 105 % of control | dose: 0.06 mg/kg/injection, schedule: Q01DX001 (oral), vehicle: saline 95 % of control | dose: 0.06 mg/kg/injection, schedule: Q01DX009 (oral), vehicle: saline 110 % of control | dose: 0.06 mg/kg/injection, schedule: Q01DX010 (ip), vehicle: saline 109 % of control | dose: 0.12 mg/kg/injection, schedule: Q01DX001 (oral), vehicle: saline 104 % of control | dose: 0.12 mg/kg/injection, schedule: Q01DX009 (oral), vehicle: saline 110 % of control | dose: 0.24 mg/kg/injection, schedule: Q01DX001 (oral), vehicle: saline 104 % of control | dose: 0.48 mg/kg/injection, schedule: Q01DX001 (oral), vehicle: saline 100 % of control | dose: 0.1 micrograms/kg/injection, schedule: Q01DX010 (ip), vehicle: carboxymethylcellulose (CMC) 95 % of control | dose: 0.1 micrograms/kg/injection, schedule: Q01DX010 (ip), vehicle: other 113 % of control | dose: 0.2 micrograms/kg/injection, schedule: Q01DX010 (ip), vehicle: carboxymethylcellulose (CMC) 95 % of control | dose: 0.2 micrograms/kg/injection, schedule: Q01DX010 (ip), vehicle: other 118 % of control | dose: 0.3 micrograms/kg/injection, schedule: Q01DX010 (ip), vehicle: saline 100 % of control | dose: 0.3 micrograms/kg/injection, schedule: Q01DX010 (ip), vehicle: steriod suspending solution 95 % of control | dose: 0.5 micrograms/kg/injection, schedule: Q01DX010 (ip), vehicle: carboxymethylcellulose (CMC) 104 % of control | dose: 0.5 micrograms/kg/injection, schedule: Q01DX010 (ip), vehicle: other 109 % of control | dose: 0.5 micrograms/kg/injection, schedule: Q01DX010 (ip), vehicle: saline 116 % of control | dose: 0.6 micrograms/kg/injection, schedule: Q01DX010 (ip), vehicle: saline 95 % of control | dose: 0.6 micrograms/kg/injection, schedule: Q01DX010 (ip), vehicle: steriod suspending solution 120 % of control | dose: 1.0 micrograms/kg/injection, schedule: Q01DX010 (ip), vehicle: other 109 % of control | dose: 1.0 micrograms/kg/injection, schedule: Q01DX010 (ip), vehicle: saline 120 % of control | dose: 1.3 micrograms/kg/injection, schedule: Q01DX010 (ip), vehicle: saline 122 % of control | dose: 2.0 micrograms/kg/injection, schedule: Q01DX010 (ip), vehicle: other 113 % of control | dose: 4.0 micrograms/kg/injection, schedule: Q01DX010 (ip), vehicle: carboxymethylcellulose (CMC) 118 % of control | dose: 16.0 micrograms/kg/injection, schedule: Q01DX010 (ip), vehicle: saline 118 % of control | dose: 30.0 micrograms/kg/injection, schedule: Q01DX010 (ip), vehicle: saline 109 % of control | dose: 60.0 micrograms/kg/injection, schedule: Q01DX010 (ip), vehicle: saline 86 % of control

COc1c(OC)c(OC)c(C(=O)/C=C/c2ccccc2)c(OC)c1OC
inactive: [1] 104 % of control | [2] 104 % of control | [3] 99 % of control

COc1ccccc1C(=O)/C=C\c1ccc(OCc2ccccc2)cc1
inactive: [2] 89 % of control | [3] 86 % of control | dose: 200.0 mg/kg/injection, schedule: Q01DX009 (ip), vehicle: saline with Tween-80 87 % of control

CCOC(=O)N1C=Cn2c(cnc2C)C1OCC (centres undefined)
inactive: dose: 100.0 mg/kg/injection, schedule: Q04DX003 (ip), vehicle: saline 102 % of control | dose: 200.0 mg/kg/injection, schedule: Q04DX003 (ip), vehicle: saline 112 % of control | dose: 400.0 mg/kg/injection, schedule: Q04DX003 (ip), vehicle: saline 116 % of control

C[Si](C)(C)O/C=C1\CCCCC1=O
inactive: [1] 110 % of control | [3] 117 % of control

O=C1c2cccc(O)c2C(=O)c2c(O)cc(CO)cc21
inactive: dose: 8.8 mg/kg/injection, schedule: Q01DX010 (ip), vehicle: other 100 % of control | dose: 10.0 mg/kg/injection, schedule: Q01DX010 (ip), vehicle: carboxymethylcellulose (CMC) 122 % of control | dose: 10.0 mg/kg/injection, schedule: Q01DX010 (ip), vehicle: other 108 % of control | dose: 13.0 mg/kg/injection, schedule: Q01DX010 (ip), vehicle: other 111 % of control | dose: 16.0 mg/kg/injection, schedule: Q01DX009 (ip), vehicle: gum acacia 97 % of control | dose: 20.0 mg/kg/injection, schedule: Q01DX009 (ip), vehicle: gum acacia 106 % of control | dose: 20.0 mg/kg/injection, schedule: Q01DX010 (ip), vehicle: carboxymethylcellulose (CMC) 94 % of control | dose: 25.0 mg/kg/injection, schedule: Q01DX009 (ip), vehicle: gum acacia 97 % of control | dose: 40.0 mg/kg/injection, schedule: Q01DX010 (ip), vehicle: carboxymethylcellulose (CMC) 116 % of control | dose: 40.0 mg/kg/injection, schedule: Q01DX010 (ip), vehicle: other 120 % of control | dose: 80.0 mg/kg/injection, schedule: Q01DX010 (ip), vehicle: carboxymethylcellulose (CMC) 122 % of control
active: dose: 20.0 mg/kg/injection, schedule: Q01DX010 (ip), vehicle: other 154 % of control

C1CC[N-]CC1.C1CC[N-]CC1.C1CC[N-]CC1.[Cl][Cr]([Cl])[Cl]
inactive: dose: 50.0 mg/kg/injection, schedule: Q01DX009 (ip), vehicle: Klucel (hydroxypropylcellulose) (HPC) 90 % of control | dose: 100.0 mg/kg/injection, schedule: Q01DX009 (ip), vehicle: Klucel (hydroxypropylcellulose) (HPC) 100 % of control

CCCCC[C@H](O)/C=C/[C@@H]1[C@@H](C/C=C\CCCC(=O)O)[C@@H](O)C[C@H]1O
inactive: dose: 0.25 mg/kg/injection, schedule: Q#A X020 (ip), vehicle: saline 110 % of control | dose: 0.5 mg/kg/injection, schedule: Q#A X020 (ip), vehicle: saline 101 % of control | dose: 1.0 mg/kg/injection, schedule: Q#A X020 (ip), vehicle: saline 100 % of control | dose: 2.5 mg/kg/injection, schedule: Q04DX003 (ip), vehicle: saline with Tween-80 94 % of control | dose: 5.0 mg/kg/injection, schedule: Q04DX002 (ip), vehicle: saline 97 % of control | dose: 10.0 mg/kg/injection, schedule: Q04DX003 (ip), vehicle: saline with Tween-80 105 % of control | dose: 20.0 mg/kg/injection, schedule: Q04DX002 (ip), vehicle: saline 105 % of control | dose: 40.0 mg/kg/injection, schedule: Q04DX002 (ip), vehicle: saline 105 % of control | dose: 80.0 mg/kg/injection, schedule: Q04DX002 (ip), vehicle: saline 97 % of control

NOCc1cc2c(cc1Cl)OCO2
inactive: dose: 100.0 mg/kg/injection, schedule: Q04DX003 (ip), vehicle: Klucel (hydroxypropylcellulose) (HPC) 95 % of control | dose: 200.0 mg/kg/injection, schedule: Q04DX003 (ip), vehicle: Klucel (hydroxypropylcellulose) (HPC) 100 % of control | dose: 400.0 mg/kg/injection, schedule: Q04DX003 (ip), vehicle: Klucel (hydroxypropylcellulose) (HPC) 113 % of control
